From US12077503B2, “Substituted cyclic amides and their use as herbicides” (FMC CORPORATION, priority 2015, dated 2024)

Columns and labels:
Format in all cases: in vivo
[1] = system: ivy-leaved morning glory (Ipomoea hederacea); experiment: Test G Pre-Emergence Protocol; conditions: Ipomoea, pre-emergence, 312 h, evaluated after 13 days; for pest or weed control at 15.625 g/ha: 15.625 g ai/ha, read-out: Morning-glory, Ivy-leaved damage rating (100=total damage to plant; 0=no damage to plant); for pest or weed control at 62.5 g/ha: 62.5 g ai/ha, 100=total damage to plant, 0=no damage to plant, read-out: plant damage rating, Morningglory, Ivy-leaved; for pest or weed control at 250 g/ha: 250 g ai/ha, read-out: Morningglory, Ivy-leaved damage rating (100=total damage to plant; 0=no damage to plant)
Summary of the method: (§1)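 One day after sowing, pots are treated with a spray of test compound formulated in acetone/water 50:50 plus 0.5% Tween 20, giving 15.625, 62.5 or 250 g/ha. Evaluation on a 0–100 damage scale follows 13 days of glasshouse growth.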

[2] = system: velvetleaf (Abutilon theophrasti); experiment: Test G Pre-Emergence Protocol; conditions: Abutilon theophrasti, pre-emergence, 312 h, evaluated after 13 days; for pest or weed control at 15.625 g/ha: 15.625 g ai/ha; for pest or weed control at 15.625 g/ha / pest or weed control at 250 g/ha: read-out: Velvetleaf damage rating (100=total damage to plant; 0=no damage to plant); for pest or weed control at 62.5 g/ha: 62.5 g ai/ha, 100=total damage to plant, 0=no damage to plant, read-out: plant damage rating, Velvetleaf; for pest or weed control at 250 g/ha: 250 g ai/ha
Summary of the method: as §1

corn (Zea mays) [3] = experiment: Test G Pre-Emergence Protocol; conditions: Zea mays, pre-emergence, 312 h, evaluated after 13 days; for plant injury at 15.625 g/ha: 15.625 g ai/ha; for plant injury at 15.625 g/ha / plant injury at 250 g/ha: read-out: Corn damage rating (100=total damage to plant; 0=no damage to plant); for plant injury at 62.5 g/ha: 62.5 g ai/ha, 100=total damage to plant, 0=no damage to plant, read-out: plant damage rating, Corn; for plant injury at 250 g/ha: 250 g ai/ha
Summary of the method: as §1

[4] = system: redroot pigweed (Amaranthus retroflexus); experiment: Test G Pre-Emergence Protocol; conditions: Amaranthus retroflexus, pre-emergence, 312 h, evaluated after 13 days; for pest or weed control at 15.625 g/ha: 15.625 g ai/ha; for pest or weed control at 15.625 g/ha / pest or weed control at 250 g/ha: read-out: Pigweed, Redroot damage rating (100=total damage to plant; 0=no damage to plant); for pest or weed control at 62.5 g/ha: 62.5 g ai/ha, 100=total damage to plant, 0=no damage to plant, read-out: plant damage rating, Pigweed, Redroot; for pest or weed control at 250 g/ha: 250 g ai/ha
Summary of the method: as §1

[5] = system: giant foxtail (Setaria faberi); experiment: Test G Pre-Emergence Protocol; conditions: Setaria faberi, pre-emergence, 312 h, evaluated after 13 days; for pest or weed control at 15.625 g/ha: 15.625 g ai/ha; for pest or weed control at 15.625 g/ha / pest or weed control at 250 g/ha: read-out: Foxtail, Giant damage rating (100=total damage to plant; 0=no damage to plant); for pest or weed control at 62.5 g/ha: 62.5 g ai/ha, 100=total damage to plant, 0=no damage to plant, read-out: plant damage rating, Foxtail, Giant; for pest or weed control at 250 g/ha: 250 g ai/ha
Summary of the method: as §1

[6] = system: barnyardgrass (Echinochloa crus-galli); experiment: Test G Pre-Emergence Protocol; conditions: Echinochloa crus-galli, pre-emergence, 312 h, evaluated after 13 days; for pest or weed control at 15.625 g/ha: 15.625 g ai/ha, read-out: Barnyard grass damage rating (100=total damage to plant; 0=no damage to plant); for pest or weed control at 62.5 g/ha: 62.5 g ai/ha, 100=total damage to plant, 0=no damage to plant, read-out: plant damage rating, Barnyardgrass; for pest or weed control at 250 g/ha: 250 g ai/ha, read-out: Barnyardgrass damage rating (100=total damage to plant; 0=no damage to plant)
Summary of the method: as §1

[7] = system: ivy-leaved morning glory (Ipomoea hederacea); experiment: Test G Post-Emergence Protocol; conditions: Ipomoea, post-emergence, 312 h; for pest or weed control at 15.625 g/ha: 15.625 g ai/ha, evaluated after 13 days (100=total damage to plant; 0=no damage to plant), read-out: Morningglory, Ivy-leaved damage rating; for pest or weed control at 62.5 g/ha: 62.5 g ai/ha, read-out: Morningglory, Ivy-leaved damage rating (100=total damage to plant; 0=no damage to plant); for pest or weed control at 62.5 g/ha / pest or weed control at 250 g/ha: evaluated after 13 days; for pest or weed control at 250 g/ha: 250 g ai/ha, read-out: damage to plant, Morningglory, Ivy-leaved (100=total damage to plant; 0=no damage to plant)
Summary of the method: (§2)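 Eight days post-sowing, plants received a spray of test compound (acetone/water 50:50, 0.5% Tween 20) at 15.625, 62.5 or 250 g/ha. Glasshouse regime thereafter: 24/16 °C, 14 h light, 65% humidity. Assessment after 13 days on a 0–100 damage scale.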

[8] = system: velvetleaf (Abutilon theophrasti); experiment: Test G Post-Emergence Protocol; conditions: Abutilon theophrasti, post-emergence, 312 h; for pest or weed control at 15.625 g/ha: 15.625 g ai/ha, evaluated after 13 days (100=total damage to plant; 0=no damage to plant), read-out: Velvetleaf damage rating; for pest or weed control at 62.5 g/ha: 62.5 g ai/ha, read-out: Velvetleaf damage rating (100=total damage to plant; 0=no damage to plant); for pest or weed control at 62.5 g/ha / pest or weed control at 250 g/ha: evaluated after 13 days; for pest or weed control at 250 g/ha: 250 g ai/ha, read-out: damage to plant, Velvetleaf (100=total damage to plant; 0=no damage to plant)
Summary of the method: as §2

corn (Zea mays) [9] = experiment: Test G Post-Emergence Protocol; conditions: Zea mays, post-emergence, 312 h; for plant injury at 15.625 g/ha: 15.625 g ai/ha, evaluated after 13 days (100=total damage to plant; 0=no damage to plant), read-out: Corn damage rating; for plant injury at 62.5 g/ha: 62.5 g ai/ha, read-out: Corn damage rating (100=total damage to plant; 0=no damage to plant); for plant injury at 62.5 g/ha / plant injury at 250 g/ha: evaluated after 13 days; for plant injury at 250 g/ha: 250 g ai/ha, read-out: damage to plant, Corn (100=total damage to plant; 0=no damage to plant)
Summary of the method: as §2

[10] = system: redroot pigweed (Amaranthus retroflexus); experiment: Test G Post-Emergence Protocol; conditions: Amaranthus retroflexus, post-emergence, 312 h; for pest or weed control at 15.625 g/ha: 15.625 g ai/ha, evaluated after 13 days (100=total damage to plant; 0=no damage to plant), read-out: Pigweed, Redroot damage rating; for pest or weed control at 62.5 g/ha: 62.5 g ai/ha, read-out: Pigweed, Redroot damage rating (100=total damage to plant; 0=no damage to plant); for pest or weed control at 62.5 g/ha / pest or weed control at 250 g/ha: evaluated after 13 days; for pest or weed control at 250 g/ha: 250 g ai/ha, read-out: damage to plant, Pigweed, Redroot (100=total damage to plant; 0=no damage to plant)
Summary of the method: as §2

[11] = system: giant foxtail (Setaria faberi); experiment: Test G Post-Emergence Protocol; conditions: Setaria faberi, post-emergence, 312 h; for pest or weed control at 15.625 g/ha: 15.625 g ai/ha, evaluated after 13 days (100=total damage to plant; 0=no damage to plant), read-out: Foxtail, Giant damage rating; for pest or weed control at 62.5 g/ha: 62.5 g ai/ha, read-out: Foxtail, Giant damage rating (100=total damage to plant; 0=no damage to plant); for pest or weed control at 62.5 g/ha / pest or weed control at 250 g/ha: evaluated after 13 days; for pest or weed control at 250 g/ha: 250 g ai/ha, read-out: damage to plant, Foxtail, Giant (100=total damage to plant; 0=no damage to plant)
Summary of the method: as §2

[12] = system: barnyardgrass (Echinochloa crus-galli); experiment: Test G Post-Emergence Protocol; conditions: Echinochloa crus-galli, post-emergence, 312 h; for pest or weed control at 15.625 g/ha: 15.625 g ai/ha, evaluated after 13 days (100=total damage to plant; 0=no damage to plant), read-out: Barnyardgrass damage rating; for pest or weed control at 62.5 g/ha: 62.5 g ai/ha, read-out: Barnyardgrass damage rating (100=total damage to plant; 0=no damage to plant); for pest or weed control at 62.5 g/ha / pest or weed control at 250 g/ha: evaluated after 13 days; for pest or weed control at 250 g/ha: 250 g ai/ha, read-out: damage to plant, Barnyardgrass (100=total damage to plant; 0=no damage to plant)
Summary of the method: as §2

| Structure (SMILES) | pest or weed control at 15.625 g/ha [1] [%] | pest or weed control at 62.5 g/ha [1] [%] | pest or weed control at 250 g/ha [1] [%] | pest or weed control at 15.625 g/ha [2] [%] | pest or weed control at 62.5 g/ha [2] [%] | pest or weed control at 250 g/ha [2] [%] | plant injury at 15.625 g/ha (corn (Zea mays) [3]) [%] | plant injury at 62.5 g/ha (corn (Zea mays) [3]) [%] | plant injury at 250 g/ha (corn (Zea mays) [3]) [%] | pest or weed control at 15.625 g/ha [4] [%] | pest or weed control at 62.5 g/ha [4] [%] | pest or weed control at 250 g/ha [4] [%] | pest or weed control at 15.625 g/ha [5] [%] | pest or weed control at 62.5 g/ha [5] [%] | pest or weed control at 250 g/ha [5] [%] | pest or weed control at 15.625 g/ha [6] [%] | pest or weed control at 62.5 g/ha [6] [%] | pest or weed control at 250 g/ha [6] [%] | pest or weed control at 15.625 g/ha [7] [%] | pest or weed control at 62.5 g/ha [7] [%] | also measured |
| --- | --- | --- | --- | --- | --- | --- | --- | --- | --- | --- | --- | --- | --- | --- | --- | --- | --- | --- | --- | --- | --- |
| CN1C[C@@H](c2ccc(NS(C)(=O)=O)cc2)[C@H](C(=O)Nc2ccccc2F)C1=O (racemic) [Compound 1416] | 0 | 0 | 0 | 0 | 0 | 0 | 0 | 0 | 0 | 0 | 0 | 0 | 0 | 0 | 0 | 0 | 0 | 0 | 0 | 0 | pest or weed control at 250 g/ha [7]: 0%; pest or weed control at 15.625 g/ha [8]: 0%; pest or weed control at 62.5 g/ha [8]: 0%; pest or weed control at 250 g/ha [8]: 0%; plant injury at 15.625 g/ha (corn (Zea mays) [9]): 0%; plant injury at 62.5 g/ha (corn (Zea mays) [9]): 0%; plant injury at 250 g/ha (corn (Zea mays) [9]): 0%; pest or weed control at 15.625 g/ha [10]: 0%; pest or weed control at 62.5 g/ha [10]: 0%; pest or weed control at 250 g/ha [10]: 0%; pest or weed control at 15.625 g/ha [11]: 0%; pest or weed control at 62.5 g/ha [11]: 0%; pest or weed control at 250 g/ha [11]: 0%; pest or weed control at 15.625 g/ha [12]: 0%; pest or weed control at 62.5 g/ha [12]: 0%; pest or weed control at 250 g/ha [12]: 0% |
| CN1C[C@@H](c2ccc(C(F)(F)F)nc2)[C@H](C(=O)Nc2ccccc2F)C1=O (racemic) [Compound 1419] | 0 | 0 | 60 | 0 | 0 | 0 | 0 | 0 | 50 | 0 | 0 | 70 | 10 | 80 | 90 | 10 | 80 | 90 | 0 | 20 | pest or weed control at 250 g/ha [7]: 10%; pest or weed control at 15.625 g/ha [8]: 10%; pest or weed control at 62.5 g/ha [8]: 10%; pest or weed control at 250 g/ha [8]: 0%; plant injury at 15.625 g/ha (corn (Zea mays) [9]): 10%; plant injury at 62.5 g/ha (corn (Zea mays) [9]): 10%; plant injury at 250 g/ha (corn (Zea mays) [9]): 20%; pest or weed control at 15.625 g/ha [10]: 10%; pest or weed control at 62.5 g/ha [10]: 20%; pest or weed control at 250 g/ha [10]: 30%; pest or weed control at 15.625 g/ha [11]: 10%; pest or weed control at 62.5 g/ha [11]: 60%; pest or weed control at 250 g/ha [11]: 70%; pest or weed control at 15.625 g/ha [12]: 30%; pest or weed control at 62.5 g/ha [12]: 50%; pest or weed control at 250 g/ha [12]: 60% |
